Experimental data as given in patent publication US12441723B2, “Pyrazole compounds, formulations thereof, and a method for using the compounds and/or formulations” (Rigel Pharmaceuticals, Inc., priority 2019, dated 2025).
Counter-ions that a name gives are not always drawn.

How the values were obtained:
[1] = Pharmacokinetics in male cynomolgus monkeys (co-crystal capsules, spray-dried dispersion); format: in vivo
Description: Two groups of male cynomolgus monkeys (n=3/group) were administered test articles in a 3-way crossover design as indicated in Table 2. The washout period between doses was 3-4 days. Test article capsules were prepared such that each capsule contained an equivalent of 25 mg of free base compound I-1. The organic stock solution of compound I-1 was prepared at a concentration of 5 mg/ml using TPGS/PEG400/PG, and was diluted with apple juice within 1 hour of dosing (PO) at 1 part stock solution to 3 parts apple juice.
FIGS. 11-14 provide graphs of the plasma concentrations obtained from administering the co-crystal formulations of compound I-1 to monkeys. And Table 3 provides pharmacokinetic (PK) data for the co-crystal formulations, including the average area under the curve (AUC) and percent bioavailability.
FIG. 19 provides PK data for one embodiment of the disclosed spray-dried formulation, and the organic/juice formulation.

[2] = Physical and chemical stability of salts of I-18, 1 week (XRPD, HPLC purity); format: physicochemical; conditions: for Area (%) of HPLC peak RRT 1.00: main peak; for Area (%) of HPLC peak RRT 1.17: peak = parent compound formed by hydrolysis; for Form change: XRPD; for Initial purity (area %): HPLC, before storage
Description: The physical and chemical stability of the K salt, Arginine salt, Choline salt and Tris salt were evaluated under conditions of 25° C./60% RH and 40° C./75% RH for 1 week. Each sample was added into 3 mL glass vials, sealed by parafilm with several holes, and kept under tested condition. After one week, samples was taken for XRPD and HPLC purity test.

[3] = 25° C./60% RH, 1 week, listed as choline salt
[4] = 40° C./75% RH, 1 week, listed as choline salt
[5] = Initial, listed as choline salt
[6] = 25° C./60% RH, 1 week, listed as potassium salt
[7] = 40° C./75% RH, 1 week, listed as potassium salt
[8] = Initial, listed as potassium salt
[9] = 25° C./60% RH, 1 week, listed as tris salt
[10] = 40° C./75% RH, 1 week, listed as tris salt

In the case of `CCO[C@H]1CC[C@H](n2cc(NC(=O)c3csc(-c4cn[nH]c4)n3)c(-c3nc(F)ccc3F)n2)CC1` [I-104, N-(3-(3,6-difluoropyridin-2-yl)-1-((1r,4r)-4-ethoxycyclohexyl)-1H-pyrazol-4-yl)-2-(1H-pyrazol-4-yl)thiazole-4-carboxamide phosphate], the bioavailability ([1]; cynomolgus monkey, plasma, po, n=3, capsule with equivalent of 25 mg free base compound I-1, read-out: % F (percent bioavailability)) is reported as 7.9% and the AUC(0-t) ([1]; cynomolgus monkey, po, n=3, capsule with equivalent of 25 mg free base compound I-1, plasma, normalized to 5 mg/kg of compound I-1, read-out: Average AUC0-24 h ± SD (5 mg/kg basis)) is reported as 921 ± 446 ng·h/mL.
In the case of `CCO[C@H]1CC[C@H](n2cc(NC(=O)c3csc(-c4cn[nH]c4)n3)c(-c3nc(F)ccc3F)n2)CC1` [I-105, N-(3-(3,6-difluoropyridin-2-yl)-1-((1r,4r)-4-ethoxycyclohexyl)-1H-pyrazol-4-yl)-2-(1H-pyrazol-4-yl)thiazole-4-carboxamide gentisate], the “% F (percent bioavailability)” value ([1]; n=3, capsule with equivalent of 25 mg free base compound I-1, listed as Gentisate cocystal) is reported as 9.8%.
With `CCO[C@H]1CC[C@H](n2cc(NC(=O)c3csc(-c4cnn(C(C)OP(=O)(O)O)c4)n3)c(-c3nc(F)ccc3F)n2)CC1` (stereo partly drawn) [I-111, 1-(4-(4-((3-(3,6-difluoropyridin-2-yl)-1-((1r,4r)-4-ethoxycyclohexyl)-1H-pyrazol-4-yl)carbamoyl)thiazol-2-yl)-1H-pyrazol-1-yl)ethyl dihydrogen phosphate choline salt] the “Area (%) of HPLC peak RRT 0.77” value [2, 3] was 0.04%, the “Area (%) of HPLC peak RRT 1.35” value [2, 3] was 0.10% and the “Area (%) of HPLC peak RRT 1.45” value [2, 3] was 0.07%. The “Area (%) of HPLC peak RRT 1.71” value [2, 3] was 0.05%, the “Area (%) of HPLC peak RRT 1.73” value [2, 3] was 0.46% and the HPLC purity change [2, 3] was “no HPLC purity decrease”. The “Area (%) of HPLC peak RRT 1.00” value [2, 3] was 98.66%, the “Area (%) of HPLC peak RRT 1.17” value [2, 3] was 0.58% and the “Purity/Initial purity (%)” value ([2]; 25° C./60% RH/1 week) was 100.0%. The Form change ([2]; 25° C./60% RH/1 week, listed as Choline salt) was “no form change and No”, the “Area (%) of HPLC peak RRT 0.77” value [2, 4] was 0.04% and the “Area (%) of HPLC peak RRT 1.35” value [2, 4] was 0.14%. The “Area (%) of HPLC peak RRT 1.45” value [2, 4] was 0.11%, the “Area (%) of HPLC peak RRT 1.71” value [2, 4] was 0.08% and the “Area (%) of HPLC peak RRT 1.73” value [2, 4] was 0.46%. The HPLC purity change [2, 4] was “a purity decrease was observed”, the “Area (%) of HPLC peak RRT 1.00” value [2, 4] was 97.81% and the “Area (%) of HPLC peak RRT 1.17” value [2, 4] was 1.31%. The Form change ([2]; 40° C./75% RH/1 week, listed as Choline salt) was “no form change and No”, the “Initial purity (area %)” value ([2]; listed as Choline salt) was 98.70 area % and the “Area (%) of HPLC peak RRT 1.35” value ([2]; Initial) was <0.03%. For the same compound, the “Area (%) of HPLC peak RRT 0.77” value [2, 5] was 0.03%, the “Area (%) of HPLC peak RRT 1.13” value [2, 5] was 0.06% and the “Area (%) of HPLC peak RRT 1.45” value [2, 5] was 0.06%. For the same compound, the “Area (%) of HPLC peak RRT 1.71” value [2, 5] was 0.06%, the “Area (%) of HPLC peak RRT 1.73” value [2, 5] was 0.33% and the “Area (%) of HPLC peak RRT 1.00” value [2, 5] was 98.70%. For the same compound, the “Area (%) of HPLC peak RRT 1.17” value [2, 5] was 0.75%.
For `CCO[C@H]1CC[C@H](n2cc(NC(=O)c3csc(-c4cn[nH]c4)n3)c(-c3nc(F)ccc3F)n2)CC1` [I-106, N-(3-(3,6-difluoropyridin-2-yl)-1-((1r,4r)-4-ethoxycyclohexyl)-1H-pyrazol-4-yl)-2-(1H-pyrazol-4-yl)thiazole-4-carboxamide succinate], the “% F (percent bioavailability)” value ([1]; n=3, capsule with equivalent of 25 mg free base compound I-1, listed as Succinate co-crystal) was 12.7%.
With `CCO[C@H]1CC[C@H](n2cc(NC(=O)c3csc(-c4cn[nH]c4)n3)c(-c3nc(F)ccc3F)n2)CC1.O=C(O)C(O)C(O)C(=O)O` [I-11, N-(3-(3,6-difluoropyridin-2-yl)-1-((1r,4r)-4-ethoxycyclohexyl)-1H-pyrazol-4-yl)-2-(1H-pyrazol-4-yl)thiazole-4-carboxamide hemi-tartrate salt] the “% F (percent bioavailability)” value ([1]; n=3, capsule with equivalent of 25 mg free base compound I-1) was 24.7%.
With `CCO[C@H]1CC[C@H](n2cc(NC(=O)c3csc(-c4cnn(C(C)OP(=O)(O)O)c4)n3)c(-c3nc(F)ccc3F)n2)CC1` (stereo partly drawn) [I-108, potassium 1-(4-(4-((3-(3,6-difluoropyridin-2-yl)-1-((1r,4r)-4-ethoxycyclohexyl)-1H-pyrazol-4-yl)carbamoyl)thiazol-2-yl)-1H-pyrazol-1-yl)ethyl hydrogen phosphate] the “Area (%) of HPLC peak RRT 1.14” value ([2]; 25° C./60% RH, 1 week) was <0.04%, the “Area (%) of HPLC peak RRT 1.40” value ([2]; 25° C./60% RH, 1 week) was 0.25% and the “Area (%) of HPLC peak RRT 1.44” value ([2]; 25° C./60% RH, 1 week) was 0.30%. The “Area (%) of HPLC peak RRT 1.70” value ([2]; 25° C./60% RH, 1 week) was 0.27%, the “Area (%) of HPLC peak RRT 1.72” value ([2]; 25° C./60% RH, 1 week) was 0.78% and the “Area (%) of HPLC peak RRT 1.81” value ([2]; 25° C./60% RH, 1 week) was <0.04%. The HPLC purity change ([2]; 25° C./60% RH, 1 week, listed as K salt) was “slight purity decrease”, the “Area (%) of HPLC peak RRT 1.00” value [2, 6] was 96.26% and the “Area (%) of HPLC peak RRT 1.17” value [2, 6] was 2.14%. The Form change ([2]; 25° C./60% RH/1 week, listed as K salt) was “no form change and No”, the “Area (%) of HPLC peak RRT 1.14” value ([2]; 40° C./75% RH, 1 week) was 0.05% and the “Area (%) of HPLC peak RRT 1.40” value ([2]; 40° C./75% RH, 1 week) was 0.39%. For the same compound, the “Area (%) of HPLC peak RRT 1.44” value ([2]; 40° C./75% RH, 1 week) was 0.24%, the “Area (%) of HPLC peak RRT 1.70” value ([2]; 40° C./75% RH, 1 week) was 0.24% and the “Area (%) of HPLC peak RRT 1.72” value ([2]; 40° C./75% RH, 1 week) was 0.83%. For the same compound, the “Area (%) of HPLC peak RRT 1.81” value ([2]; 40° C./75% RH, 1 week) was 0.04%, the HPLC purity change ([2]; 40° C./75% RH, 1 week, listed as K salt) was “slight purity decrease” and the “Area (%) of HPLC peak RRT 1.00” value [2, 7] was 96.40%. The “Area (%) of HPLC peak RRT 1.17” value [2, 7] was 1.80%, the Form change ([2]; 40° C./75% RH/1 week, listed as K salt) was “a form change was observed and Yes” and the “Initial purity (area %)” value ([2]; listed as K salt) was 97.27 area %. For the same compound, the “Area (%) of HPLC peak RRT 1.14” value ([2]; Initial) was <0.04%, the “Area (%) of HPLC peak RRT 1.40” value ([2]; Initial) was 0.23% and the “Area (%) of HPLC peak RRT 1.44” value ([2]; Initial) was 0.21%. The “Area (%) of HPLC peak RRT 1.70” value ([2]; Initial) was 0.18%, the “Area (%) of HPLC peak RRT 1.72” value ([2]; Initial) was 0.77% and the “Area (%) of HPLC peak RRT 1.81” value ([2]; Initial) was <0.04%. For the same compound, the “Area (%) of HPLC peak RRT 1.00” value [2, 8] was 97.27% and the “Area (%) of HPLC peak RRT 1.17” value [2, 8] was 1.33%.
For `CCO[C@H]1CC[C@H](n2cc(NC(=O)c3csc(-c4cnn(C(C)OP(=O)(O)O)c4)n3)c(-c3nc(F)ccc3F)n2)CC1` (stereo partly drawn) [I-49, 1-(4-(4-((3-(3,6-difluoropyridin-2-yl)-1-((1r,4r)-4-ethoxycyclohexyl)-1H-pyrazol-4-yl)carbamoyl)thiazol-2-yl)-1H-pyrazol-1-yl)ethyl dihydrogen phosphate tris salt], the “Area (%) of HPLC peak RRT 1.13” value ([2]; 25° C./60% RH, 1 week) was 0.06%, the “Area (%) of HPLC peak RRT 0.77” value [2, 9] was <0.03% and the “Area (%) of HPLC peak RRT 1.45” value [2, 9] was 0.35%. For the same compound, the “Area (%) of HPLC peak RRT 1.71” value [2, 9] was 0.80%, the “Area (%) of HPLC peak RRT 1.73” value [2, 9] was 0.55% and the HPLC purity change [2, 9] was “no HPLC purity decrease”. For the same compound, the “Area (%) of HPLC peak RRT 1.00” value [2, 9] was 96.61%, the “Area (%) of HPLC peak RRT 1.17” value [2, 9] was 1.63% and the Form change ([2]; 25° C./60% RH/1 week, listed as Tris salt) was “no form change and No”. The “Area (%) of HPLC peak RRT 0.77” value [2, 10] was 0.03%, the “Area (%) of HPLC peak RRT 1.45” value [2, 10] was 0.47% and the “Area (%) of HPLC peak RRT 1.71” value [2, 10] was 0.88%. For the same compound, the “Area (%) of HPLC peak RRT 1.73” value [2, 10] was 0.84%, the HPLC purity change [2, 10] was “a purity decrease was observed” and the “Area (%) of HPLC peak RRT 1.00” value [2, 10] was 95.03%. The “Area (%) of HPLC peak RRT 1.17” value [2, 10] was 2.69%, the Form change ([2]; 40° C./75% RH/1 week, listed as Tris salt) was “no form change and No” and the “Initial purity (area %)” value ([2]; listed as Tris salt) was 96.06 area %. The “Area (%) of HPLC peak RRT 0.77” value ([2]; Initial, listed as tris salt) was <0.03%, the “Area (%) of HPLC peak RRT 1.13” value ([2]; Initial, listed as tris salt) was 0.07% and the “Area (%) of HPLC peak RRT 1.45” value ([2]; Initial, listed as tris salt) was 0.37%. For the same compound, the “Area (%) of HPLC peak RRT 1.71” value ([2]; Initial, listed as tris salt) was 0.86%, the “Area (%) of HPLC peak RRT 1.73” value ([2]; Initial, listed as tris salt) was 0.76% and the “Area (%) of HPLC peak RRT 1.00” value ([2]; Initial, listed as tris salt) was 96.06%. The “Area (%) of HPLC peak RRT 1.17” value ([2]; Initial, listed as tris salt) was 1.87%.
